Test results published in PubChem BioAssay (NCI).
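Tested at 5 concentrations; 48 h exposure; 96-well plates; endpoints linearly interpolated, else capped at highest concentration. GI50: concentration for 50% inhibition of growth. The concentration for full growth arrest is given as TGI.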

What was measured:
Test in all cases: DTP human tumour cell line panel, 48 h
786-0 renal = test system: 786-0 renal
A549 NSCLC = test system: A549 NSCLC
ACHN renal = test system: ACHN renal
BT-549 breast = test system: BT-549 breast
CAKI-1 renal = test system: CAKI-1 renal
CCRF-CEM leukemia = test system: CCRF-CEM leukemia
COLO 205 colon = test system: COLO 205 colon
DU-145 prostate = test system: DU-145 prostate
EKVX NSCLC = test system: EKVX NSCLC
HCC-2998 colon = test system: HCC-2998 colon
HCT-116 colon = test system: HCT-116 colon
HCT-15 colon = test system: HCT-15 colon
HL-60(TB) leukemia = test system: HL-60(TB) leukemia
HOP-62 NSCLC = test system: HOP-62 NSCLC
HOP-92 NSCLC = test system: HOP-92 NSCLC
HT29 colon = test system: HT29 colon
IGROV1 ovarian = test system: IGROV1 ovarian
KM12 colon = test system: KM12 colon
M14 melanoma = test system: M14 melanoma
MCF7 breast = test system: MCF7 breast
MDA-MB-435 = test system: MDA-MB-435
MOLT-4 leukemia = test system: MOLT-4 leukemia
NCI-H23 lung = test system: NCI-H23 lung
NCI-H460 lung = test system: NCI-H460 lung
NCI-H522 lung = test system: NCI-H522 lung
NCI/ADR-RES ovarian = test system: NCI/ADR-RES ovarian
OVCAR-5 ovarian = test system: OVCAR-5 ovarian
PC-3 prostate = test system: PC-3 prostate
RPMI-8226 leukemia = test system: RPMI-8226 leukemia
RXF 393 renal = test system: RXF 393 renal
SF-295 CNS = test system: SF-295 CNS
SK-MEL-28 melanoma = test system: SK-MEL-28 melanoma
SK-MEL-5 melanoma = test system: SK-MEL-5 melanoma
SNB-19 CNS = test system: SNB-19 CNS
SNB-75 CNS = test system: SNB-75 CNS
SW-620 colon = test system: SW-620 colon
TK-10 renal = test system: TK-10 renal
U251 CNS = test system: U251 CNS
UACC-257 melanoma = test system: UACC-257 melanoma
UO-31 renal = test system: UO-31 renal
HS 578T breast = test system: HS 578T breast
MDA-MB-231 breast = test system: MDA-MB-231 breast
OVCAR-4 ovarian = test system: OVCAR-4 ovarian
OVCAR-8 ovarian = test system: OVCAR-8 ovarian
SK-MEL-2 melanoma = test system: SK-MEL-2 melanoma
SK-OV-3 ovarian = test system: SK-OV-3 ovarian
K-562 leukemia = test system: K-562 leukemia
LOX IMVI melanoma = test system: LOX IMVI melanoma
MALME-3M melanoma = test system: MALME-3M melanoma
NCI-H226 lung = test system: NCI-H226 lung
SF-268 CNS = test system: SF-268 CNS
SF-539 CNS = test system: SF-539 CNS
SN12C renal = test system: SN12C renal
SR leukemia = test system: SR leukemia

COc1cc([N+](=O)[O-])c(OC)cc1-c1nc2sc(C)c(C)n2c1/C(N)=N/C(=N)N
GI50 (786-0 renal): > 100 µM
TGI (786-0 renal): > 100 µM
GI50 (A549 NSCLC): > 100 µM
TGI (A549 NSCLC): > 100 µM
GI50 (ACHN renal): > 100 µM
TGI (ACHN renal): > 100 µM
GI50 (BT-549 breast): > 100 µM
TGI (BT-549 breast): > 100 µM
GI50 (CAKI-1 renal): > 100 µM
TGI (CAKI-1 renal): > 100 µM
GI50 (CCRF-CEM leukemia): 6.01 µM
TGI (CCRF-CEM leukemia): > 100 µM
GI50 (COLO 205 colon): 13.6 µM
TGI (COLO 205 colon): > 100 µM
GI50 (DU-145 prostate): > 100 µM
TGI (DU-145 prostate): > 100 µM
GI50 (EKVX NSCLC): > 100 µM
TGI (EKVX NSCLC): > 100 µM
GI50 (HCC-2998 colon): > 100 µM
TGI (HCC-2998 colon): > 100 µM
GI50 (HCT-116 colon): > 100 µM
TGI (HCT-116 colon): > 100 µM
GI50 (HCT-15 colon): > 100 µM
TGI (HCT-15 colon): > 100 µM
GI50 (HL-60(TB) leukemia): > 100 µM
TGI (HL-60(TB) leukemia): > 100 µM
GI50 (HOP-62 NSCLC): > 100 µM
TGI (HOP-62 NSCLC): > 100 µM
GI50 (HOP-92 NSCLC): 51.6 µM
TGI (HOP-92 NSCLC): > 100 µM
GI50 (HT29 colon): > 100 µM
TGI (HT29 colon): > 100 µM
GI50 (IGROV1 ovarian): > 100 µM
TGI (IGROV1 ovarian): > 100 µM
GI50 (KM12 colon): > 100 µM
TGI (KM12 colon): > 100 µM
GI50 (M14 melanoma): > 100 µM
TGI (M14 melanoma): > 100 µM
GI50 (MCF7 breast): 1.53 µM
TGI (MCF7 breast): > 100 µM
GI50 (MDA-MB-435): > 100 µM
TGI (MDA-MB-435): > 100 µM
GI50 (MOLT-4 leukemia): > 100 µM
TGI (MOLT-4 leukemia): > 100 µM
GI50 (NCI-H23 lung): > 100 µM
TGI (NCI-H23 lung): > 100 µM
GI50 (NCI-H460 lung): > 100 µM
TGI (NCI-H460 lung): > 100 µM
GI50 (NCI-H522 lung): > 100 µM
TGI (NCI-H522 lung): > 100 µM
GI50 (NCI/ADR-RES ovarian): > 100 µM
TGI (NCI/ADR-RES ovarian): > 100 µM
GI50 (OVCAR-5 ovarian): > 100 µM
TGI (OVCAR-5 ovarian): > 100 µM
GI50 (PC-3 prostate): > 100 µM
TGI (PC-3 prostate): > 100 µM
GI50 (RPMI-8226 leukemia): 59.3 µM
TGI (RPMI-8226 leukemia): > 100 µM
GI50 (RXF 393 renal): > 100 µM
TGI (RXF 393 renal): > 100 µM
GI50 (SF-295 CNS): > 100 µM
TGI (SF-295 CNS): > 100 µM
GI50 (SK-MEL-28 melanoma): > 100 µM
TGI (SK-MEL-28 melanoma): > 100 µM
GI50 (SK-MEL-5 melanoma): 8.14 µM
TGI (SK-MEL-5 melanoma): > 100 µM
GI50 (SNB-19 CNS): 2.33 µM
TGI (SNB-19 CNS): > 100 µM
GI50 (SNB-75 CNS): > 100 µM
TGI (SNB-75 CNS): > 100 µM
GI50 (SW-620 colon): 9.8 µM
TGI (SW-620 colon): > 100 µM
GI50 (TK-10 renal): > 100 µM
TGI (TK-10 renal): > 100 µM
GI50 (U251 CNS): 2.29 µM
TGI (U251 CNS): > 100 µM
GI50 (UACC-257 melanoma): 1.02 µM
TGI (UACC-257 melanoma): > 100 µM
GI50 (UO-31 renal): > 100 µM
TGI (UO-31 renal): > 100 µM

CCN(CC)c1ccc2nc3ccc(N=Nc4ccc(N(C)C)cc4)cc3[n+](-c3ccccc3)c2c1
GI50 (786-0 renal): 0.247 µM
TGI (786-0 renal): 2.39 µM
GI50 (BT-549 breast): 0.424 µM
TGI (BT-549 breast): 2.57 µM
GI50 (CAKI-1 renal): 0.146 µM
TGI (CAKI-1 renal): 0.434 µM
GI50 (HL-60(TB) leukemia): 0.0739 µM
TGI (HL-60(TB) leukemia): 0.89 µM
GI50 (HOP-92 NSCLC): 0.17 µM
TGI (HOP-92 NSCLC): 0.811 µM
GI50 (HS 578T breast): 0.448 µM
TGI (HS 578T breast): > 100 µM
GI50 (IGROV1 ovarian): 0.0934 µM
TGI (IGROV1 ovarian): 1.53 µM
GI50 (MDA-MB-231 breast): 0.0831 µM
TGI (MDA-MB-231 breast): 0.426 µM
GI50 (NCI-H23 lung): 0.0809 µM
TGI (NCI-H23 lung): 1.37 µM
GI50 (OVCAR-4 ovarian): 0.0243 µM
TGI (OVCAR-4 ovarian): 0.0929 µM
GI50 (OVCAR-8 ovarian): 0.11 µM
TGI (OVCAR-8 ovarian): 1.48 µM
GI50 (PC-3 prostate): 0.156 µM
TGI (PC-3 prostate): 2.56 µM
GI50 (RPMI-8226 leukemia): 0.0314 µM
TGI (RPMI-8226 leukemia): 1.35 µM
GI50 (SF-295 CNS): 0.0376 µM
TGI (SF-295 CNS): 0.191 µM
GI50 (SK-MEL-2 melanoma): 0.369 µM
TGI (SK-MEL-2 melanoma): 2.05 µM
GI50 (SK-OV-3 ovarian): 0.39 µM
TGI (SK-OV-3 ovarian): 13.7 µM
GI50 (TK-10 renal): 0.389 µM
TGI (TK-10 renal): 2.1 µM

COc1cc2c(Nc3ccc(NC(=O)Nc4ccc(Cl)c(C(F)(F)F)c4)c(Cl)c3)ncnc2cc1OCCCN1CCN(C)CC1
GI50 (ACHN renal): 2.24 µM
TGI (ACHN renal): > 100 µM
GI50 (HCT-15 colon): 3.9 µM
TGI (HCT-15 colon): > 100 µM
GI50 (NCI/ADR-RES ovarian): 54.4 µM
TGI (NCI/ADR-RES ovarian): > 100 µM
GI50 (UO-31 renal): > 100 µM
TGI (UO-31 renal): > 100 µM

C=CCCC1(O)C(O)C(CO)O[C@H](O[C@@]2(CO)OC(CO)C(O)C2O)C1O (stereo not given in full)
TGI (786-0 renal): > 100 µM
TGI (A549 NSCLC): > 100 µM
TGI (ACHN renal): > 100 µM
TGI (BT-549 breast): > 100 µM
TGI (CAKI-1 renal): > 100 µM
TGI (CCRF-CEM leukemia): > 100 µM
TGI (COLO 205 colon): > 100 µM
TGI (DU-145 prostate): > 100 µM
TGI (EKVX NSCLC): > 100 µM
TGI (HCT-116 colon): > 100 µM
TGI (HCT-15 colon): > 100 µM
TGI (HL-60(TB) leukemia): > 100 µM
TGI (HOP-62 NSCLC): > 100 µM
TGI (HOP-92 NSCLC): > 100 µM
TGI (HT29 colon): > 100 µM
TGI (IGROV1 ovarian): > 100 µM
TGI (K-562 leukemia): > 100 µM
TGI (KM12 colon): > 100 µM
TGI (LOX IMVI melanoma): > 100 µM
TGI (M14 melanoma): > 100 µM
TGI (MALME-3M melanoma): > 100 µM
TGI (MCF7 breast): > 100 µM
TGI (MDA-MB-231 breast): > 100 µM
TGI (MDA-MB-435): > 100 µM
TGI (MOLT-4 leukemia): > 100 µM
TGI (NCI-H226 lung): > 100 µM
TGI (NCI-H23 lung): > 100 µM
TGI (NCI-H460 lung): > 100 µM
TGI (NCI-H522 lung): > 100 µM
TGI (NCI/ADR-RES ovarian): > 100 µM
TGI (OVCAR-4 ovarian): > 100 µM
TGI (OVCAR-5 ovarian): > 100 µM
TGI (OVCAR-8 ovarian): > 100 µM
TGI (PC-3 prostate): > 100 µM
TGI (RPMI-8226 leukemia): > 100 µM
TGI (SF-268 CNS): > 100 µM
TGI (SF-295 CNS): > 100 µM
TGI (SF-539 CNS): > 100 µM
TGI (SK-MEL-28 melanoma): > 100 µM
TGI (SK-MEL-5 melanoma): > 100 µM
TGI (SN12C renal): > 100 µM
TGI (SNB-19 CNS): > 100 µM
TGI (SNB-75 CNS): > 100 µM
TGI (SR leukemia): > 100 µM
TGI (SW-620 colon): > 100 µM
TGI (TK-10 renal): > 100 µM
TGI (U251 CNS): > 100 µM
TGI (UACC-257 melanoma): > 100 µM
